Reference: patent US9695155B2, “Herbicidal substituted pyrimidinyloxy benzene compounds” (E. I. DU PONT DE NEMOURS AND COMPANY, priority 2013, dated 2017)

Key:
chickweed = assay: Test D postemergence; format: in vivo, Stellaria media; conditions: Stellaria media, post-emergence, scale 0 to 100 (0 no effect, 100 complete control), read-out: Plant response rating, Chickweed
In short: (§1)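 After treatment, visual injury versus untreated plants, 0–100 scale, assessed at 7 to 21 days. Applications were made preemergence to silt loam-sown seed and postemergence to seedlings 2–18 cm high in potting medium.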

hairy beggarticks = assay: Test E postemergence; format: in vivo, Bidens pilosa; conditions: Bidens pilosa, post-emergence, read-out: Plant response rating, Beggarticks
In short: (§2)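 Test chemicals formulated in a non-phytotoxic solvent mixture containing a surfactant were applied preemergence to seeds in silt loam soil or postemergence to plants at the 1- to 4-leaf stage in potting mix. After 14 to 21 days in a greenhouse, injury was visually rated against controls on a 0-100 scale (0 = no effect, 100 = complete control).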

canarygrass = assay: Test D preemergence; format: in vivo, Phalaris minor; conditions: Phalaris minor, pre-emergence, scale 0-100, read-out: Plant response rating, Canarygrass
In short: as §1

blackgrass [1] = assay: Test D preemergence; format: in vivo, Alopecurus myosuroides; conditions: Alopecurus myosuroides, pre-emergence, scale 0-100, read-out: Plant response rating, Blackgrass
In short: as §1

bluegrass = assay: Test D preemergence; format: in vivo, Poa annua; conditions: Poa annua, pre-emergence, scale 0-100, read-out: Plant response rating, Bluegrass
In short: as §1

wild buckwheat = assay: Test D preemergence; format: in vivo, Polygonum convolvulus; conditions: Fallopia convolvulus, pre-emergence, scale 0-100, read-out: Plant response rating, Buckwheat, Wild
In short: as §1

speedwell = assay: Test D preemergence; format: in vivo, Veronica persica; conditions: Veronica persica, pre-emergence
In short: as §1

windgrass = assay: Test D preemergence; format: in vivo, Apera spica-venti; conditions: Apera spica-venti, pre-emergence
In short: as §1

blackgrass [2] = assay: Test D postemergence; format: in vivo, Alopecurus myosuroides; conditions: Alopecurus myosuroides, post-emergence, Postemergence, scale 0 to 100 (0 no effect, 100 complete control), read-out: Plant response rating, Blackgrass
In short: as §1

Italian ryegrass = assay: Test E postemergence; format: in vivo, Lolium multiflorum; conditions: Lolium multiflorum, post-emergence, read-out: Plant response rating, Ryegrass, Italian
In short: as §2

spring barley = assay: Test D preemergence; format: in vivo, Hordeum vulgare; conditions: Hordeum vulgare, pre-emergence, scale 0-100, read-out: Plant response rating, Barley, Spring
In short: as §1

winter barley = assay: Test D preemergence; format: in vivo, Hordeum vulgare; conditions: Hordeum vulgare, pre-emergence, scale 0-100, read-out: Plant response rating, Barley, Winter
In short: as §1

pigweed = assay: Test D postemergence; format: in vivo, Amaranthus retroflexus; conditions: Amaranthus retroflexus, post-emergence, scale 0 to 100 (0 no effect, 100 complete control), read-out: Plant response rating, Pigweed
In short: as §1

[3] = Postemergence, 31 g ai/ha, scale 0 to 100
[4] = Postemergence, 62 g ai/ha, scale 0 to 100
[5] = Postemergence, 125 g ai/ha, scale 0 to 100
[6] = Postemergence, 250 g ai/ha, scale 0 to 100
[7] = postemergence, 16 g ai/ha, scale 0 to 100, 0 no effect, 100 complete control

N#Cc1cccc(Oc2ncc(Br)cn2)c1-n1cc(C(F)(F)F)cn1 [Compound 59, 3-[(5-bromo-2-pyrimidinyl)oxy]-2-[4-(trifluoromethyl)-1H-pyrazol-1-yl]benzonitrile]
pest or weed control at 31 g/ha (chickweed; 31 g ai/ha): 70%
pest or weed control at 62 g/ha (chickweed; 62 g ai/ha): 75%
pest or weed control at 125 g/ha (chickweed; 125 g ai/ha): 95%
pest or weed control at 250 g/ha (chickweed; 250 g ai/ha): 95%
pest or weed control at 31 g/ha (hairy beggarticks; [3]): 60%
pest or weed control at 62 g/ha (hairy beggarticks; [4]): 60%
pest or weed control at 125 g/ha (hairy beggarticks; [5]): 70%
pest or weed control at 250 g/ha (hairy beggarticks; [6]): 95%
pest or weed control at 16 g/ha (hairy beggarticks; [7]): 50%
pest or weed control at 31 g/ha (canarygrass; 31 g ai/ha): 5%
pest or weed control at 62 g/ha (canarygrass; 62 g ai/ha): 15%
pest or weed control at 125 g/ha (canarygrass; 125 g ai/ha): 65%
pest or weed control at 250 g/ha (canarygrass; 250 g ai/ha): 100%
pest or weed control at 31 g/ha (blackgrass [1]; 31 g ai/ha): 25%
pest or weed control at 62 g/ha (blackgrass [1]; 62 g ai/ha): 55%
pest or weed control at 125 g/ha (blackgrass [1]; 125 g ai/ha): 70%
pest or weed control at 250 g/ha (blackgrass [1]; 250 g ai/ha): 85%
pest or weed control at 31 g/ha (bluegrass; 31 g ai/ha): 5%
pest or weed control at 62 g/ha (bluegrass; 62 g ai/ha): 10%
pest or weed control at 125 g/ha (bluegrass; 125 g ai/ha): 35%
pest or weed control at 250 g/ha (bluegrass; 250 g ai/ha): 85%
pest or weed control at 31 g/ha (wild buckwheat; 31 g ai/ha): 60%
pest or weed control at 62 g/ha (wild buckwheat; 62 g ai/ha): 100%
pest or weed control at 125 g/ha (wild buckwheat; 125 g ai/ha): 100%
pest or weed control at 250 g/ha (wild buckwheat; 250 g ai/ha): 100%
pest or weed control at 31 g/ha (speedwell; 31 g ai/ha, scale 0 (no effect) to 100 (complete control), read-out: Plant response rating, Speedwell): 15%
pest or weed control at 62 g/ha (speedwell; 62 g ai/ha, scale 0-100, read-out: Plant response rating, Speedwell): 100%
pest or weed control at 125 g/ha (speedwell; 125 g ai/ha, scale 0-100, read-out: Plant response rating, Speedwell): 100%
pest or weed control at 250 g/ha (speedwell; 250 g ai/ha, scale 0-100, read-out: Plant response rating, Speedwell): 100%
pest or weed control at 31 g/ha (windgrass; 31 g ai/ha, scale 0 (no effect) to 100 (complete control), read-out: Plant response rating, Windgrass): 70%
pest or weed control at 62 g/ha (windgrass; 62 g ai/ha, scale 0-100, read-out: Plant response rating, Windgrass): 100%
pest or weed control at 125 g/ha (windgrass; 125 g ai/ha, scale 0-100, read-out: Plant response rating, Windgrass): 100%
pest or weed control at 250 g/ha (windgrass; 250 g ai/ha, scale 0-100, read-out: Plant response rating, Windgrass): 100%
pest or weed control at 62 g/ha (blackgrass [2]; 62 g ai/ha): 30%
pest or weed control at 31 g/ha (blackgrass [2]; 31 g ai/ha): 25%
pest or weed control at 125 g/ha (blackgrass [2]; 125 g ai/ha): 40%
pest or weed control at 250 g/ha (blackgrass [2]; 250 g ai/ha): 70%
pest or weed control at 31 g/ha (Italian ryegrass; [3]): 0%
pest or weed control at 62 g/ha (Italian ryegrass; [4]): 15%
pest or weed control at 125 g/ha (Italian ryegrass; [5]): 25%
pest or weed control at 250 g/ha (Italian ryegrass; [6]): 60%
pest or weed control at 16 g/ha (Italian ryegrass; [7]): 0%
plant injury at 31 g/ha (spring barley; 31 g ai/ha): 5%
plant injury at 62 g/ha (spring barley; 62 g ai/ha): 5%
plant injury at 125 g/ha (spring barley; 125 g ai/ha): 50%
plant injury at 250 g/ha (spring barley; 250 g ai/ha): 75%
plant injury at 31 g/ha (winter barley; 31 g ai/ha): 0%
plant injury at 62 g/ha (winter barley; 62 g ai/ha): 10%
plant injury at 125 g/ha (winter barley; 125 g ai/ha): 40%
plant injury at 250 g/ha (winter barley; 250 g ai/ha): 80%
pest or weed control at 31 g/ha (pigweed; 31 g ai/ha): 100%
pest or weed control at 62 g/ha (pigweed; 62 g ai/ha): 100%
pest or weed control at 125 g/ha (pigweed; 125 g ai/ha): 95%
pest or weed control at 250 g/ha (pigweed; 250 g ai/ha): 95%
